The test system of experiment [1] is open-chest rabbit hearts. Nature of the experiment: Infarct size, 45 min ischemia model (open-chest rabbit, TTC staining). The class given is in vivo, New Zealand White rabbits. The note with it: 45 min ischemia + 3 h reperfusion; for Infarct size: (E)=5 min prior to ischemia, (L)=at reperfusion, (E&L)=from 5 min prior to ischemia for 120 min, mean ± S.E.M.; for Infarct size as a percentage of the risk zone: control 55.8±3.9%. The method, then:
(§1) New Zealand White rabbits of either sex weighing 2.0-2.5 kg were anesthetized with pentobarbital (30 mg/kg iv), intubated through a tracheotomy, and ventilated with 100% oxygen via a positive pressure respirator (MD industries, Mobile, Ala.). The ventilation rate and tidal volume were adjusted to maintain arterial blood gases in the physiological range. Body temperature was maintained at 38-39° C. A catheter was inserted into the left carotid artery for monitoring blood pressure. Another catheter was inserted into the right jugular vein for drug infusion. A left thoracotomy was performed in the fourth intercostal space, and the pericardium was opened to expose the heart. A 2-0 silk suture on a curved taper needle was passed through the myocardium around a prominent branch of the left coronary artery. The ends of the suture were passed through a small piece of soft vinyl tubing to form a snare. Ischemia was induced by pulling the snare and then fixing it by clamping the tube with a small hemostat. Ischemia was confirmed by appearance of cyanosis. Reperfusion was achieved by releasing the snare and was confirmed by visible hyperemia on the ventricular surface. After 3 h of reperfusion, the rabbit was given an overdose of pentobarbital and the heart was quickly removed from the chest, mounted on a Langendorff apparatus, and perfused with saline to wash out blood. Then the coronary artery was reoccluded, and 1 ml of 0.25% fluorescent polymer microspheres (2-9 μm diameter, Duke Scientific Corp, Palo Alto, Calif.) were infused into the perfusate to demarcate the risk zone as the area of tissue without fluorescence. The heart was weighed, frozen, and cut into 2.5-mm-thick slices. The slices were incubated in 1% triphenyltetrazolium chloride (TTC) in sodium phosphate buffer at 37° C. for 20 min. The slices were immersed in 10% formalin to enhance the contrast between stained (viable) and unstained (necrotic) tissue and then squeezed between glass plates spaced exactly 2 mm apart. The myocardium at risk was identified by illuminating the slices with ultraviolet light. The infarcted and risk zone areas were traced on a clear acetate sheet and quantified with planimetry by an investigator blinded to the treatment. The areas were converted into volumes by multiplying the areas by slice thickness. Infarct size is expressed as a percentage of the risk zone. Seven groups of rabbits were subjected to 45 min of regional ischemia followed by 3 h of reperfusion (FIG. 1). The PC was induced by a 5 min of regional ischemia followed by a 10 min reperfusion prior to the sustained ischemia. All groups receiving AMP 579 received a bolus injection of 30 μg/kg iv followed by an infusion of 3 μg/kg/min for 70 min. In PC+AMP (L) group, the hearts experienced PC and were treated with AMP 579 at reperfusion for 70 min. AMP 579 alone was given at reperfusion for 70 min in AMP (L) group. The hearts in AMP (E&L) group were treated with AMP 579 starting 5 min before ischemia for 120 min. An intravenous bolus injection of cariporide was given either 5 min prior to ischemia (Cariporide (E)) or 5 min before reperfusion (Cariporide (L)). All data are expressed as means±S.E.M. One-way ANOVA combined with Scheffé's post hoc test was used to test for differences in baseline hemodynamics and infarct size among groups. ANOVA with replication was used to test for changes in hemodynamics during an experiment within each group. A p value of less than 0.05 was considered to be significant.

Experiment [2] relates to open-chest rabbit hearts. Nature of the experiment: Infarct size, 60 min ischemia model (open-chest rabbit, TTC staining). The format is in vivo, New Zealand White rabbits. The settings on record: 60 min ischemia + 3 h reperfusion; for Infarct size: (E)=5 min prior to ischemia, (L)=at reperfusion, AMP given at reperfusion, mean ± S.E.M. The method, then: as §1, with “Pretreatment with cariporide was so potent that any additional protection would probably be undetectable with a 45-minute ischemic insult. We therefore chose a 60 min period” for “Seven groups”, “index” for “rabbits were subjected to 45 min of regional ischemia followed by 3 h of reperfusion (FIG. 1). The PC was induced by a 5 min of regional ischemia followed by a 10 min reperfusion prior to the sustained ischemia. All groups receiving AMP 579 received a bolus injection of 30 μg/kg iv followed by an infusion of 3 μg/kg/min for 70 min. In PC+AMP (L) group, the hearts experienced PC and were treated with AMP 579 at reperfusion for 70 min. AMP 579 alone was given at reperfusion for 70 min in AMP (L) group. The hearts in AMP (E&L) group were treated with AMP 579 starting 5 min before”, “these studies. […]” for “120 min. An intravenous bolus injection of cariporide was given either 5 min prior to ischemia (Cariporide (E)) or 5 min before reperfusion (Cariporide (L)).”, “ANOVA with replication was used to test for changes in hemodynamics during an experiment within each group. A p value of less than 0.05 was considered to be significant.” left out

Molecules are shown by their SMILES. Marks after values point to notes of the source that are not given here.

For `CC(C)c1ccc(C(=O)N=C(N)N)cc1S(C)(=O)=O` [Cariporide, 4-isopropyl-3-methylsulfonylbenzoylguanidine methane sulfonate], the Infarct size in the experiment on open-chest rabbit hearts [1] (listed as Cariporide (E)) is 0.13 ± 0.07* cm^3; in the experiment on open-chest rabbit hearts [1] (listed as Cariporide (L)), 0.60 ± 0.08 cm^3; with open-chest rabbit hearts [2] it was 0.47 ± 0.08* cm^3. Further, the “Infarct size as a percentage of the risk zone” value in the experiment with open-chest rabbit hearts [1] (cariporide iv bolus 5 min prior to ischemia (pretreatment)) is listed as 8.5±3.7%; with open-chest rabbit hearts [1] (cariporide iv bolus just prior to reperfusion) it was 53.4±3.5%; in the experiment on open-chest rabbit hearts [2] (cariporide 0.5 mg/kg bolus 5 min prior to ischemia, control 66.0±4.9%) it was 41.5±7.7%.
As for `CCNC(=O)[C@H]1CC(n2cnc3c(N[C@H](CC)Cc4sccc4Cl)ccnc32)[C@H](O)[C@@H]1O` (relative stereo) [AMP 579, [1S-[1α,2β,3β,4α(S*)]]-4-[7-[[3-chloro-2-thienyl)methyl]propyl]amino]-3H-imidazo[4,5-b]pyridin-3-yl]-N-ethyl-2,3-dihydroxycyclopentanecarboxamide], the Infarct size is 0.26 ± 0.05* cm^3 in the experiment on open-chest rabbit hearts [1] (listed as AMP (E&L)), 0.37 ± 0.03* cm^3 with open-chest rabbit hearts [1] (listed as AMP (L)) and 0.59 ± 0.09 cm^3 with open-chest rabbit hearts [2]. Further, the “Infarct size as a percentage of the risk zone” value in the experiment on open-chest rabbit hearts [1] (AMP 579 alone, 30 μg/kg iv bolus + 3 μg/kg/min for 70 min starting at reperfusion) turned out to be 32.1±1.8%; in the experiment with open-chest rabbit hearts [2] (AMP 579 alone at reperfusion (30 μg/kg + 3 μg/kg/min, 70 min), not significant vs control 66.0±4.9%), 45.3±5.4%.

The values are drawn from patent US20040248928A1, “Pharmaceutical composition comprising an adenosine A1/A2 agonist and a sodium hydrogen exchanger inhibitor” (Adventis Pharmaceuticals Inc., priority 2001, published 2004).
